# From patent US11071730B2, “Substituted 6-azabenzimidazole compounds” (Gilead Sciences, Inc., priority 2018, dated 2021)
# pIC50: −log10 of the molar value.
# Molecular target: human HPK1 (MAP4K1) (Homo sapiens (Human), UniProt Q92918)
# Assay: HPK1 IC50 Assay (TR-FRET biochemical kinase assay, STK S1 peptide substrate)
# Settings: recombinant human HPK1 kinase domain 0.15 nM, 10 μM ATP, 1 μM STK S1 peptide; geometric mean
# In short: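 Pre-activated recombinant kinase domain (insect cells; 0.15 nM) pre-incubated with compounds for 15 min, then 10 μM ATP and 1 μM STK S1 peptide added for 3 h at 25 °C in BES pH 7.0. Phosphorylation read by HTRF (665/620 nm). IC50 from four-parameter fits normalized to staurosporine/DMSO controls, geometric mean of repeats.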
# Chain of human HPK1 (MAP4K1) (Q92918 17-274): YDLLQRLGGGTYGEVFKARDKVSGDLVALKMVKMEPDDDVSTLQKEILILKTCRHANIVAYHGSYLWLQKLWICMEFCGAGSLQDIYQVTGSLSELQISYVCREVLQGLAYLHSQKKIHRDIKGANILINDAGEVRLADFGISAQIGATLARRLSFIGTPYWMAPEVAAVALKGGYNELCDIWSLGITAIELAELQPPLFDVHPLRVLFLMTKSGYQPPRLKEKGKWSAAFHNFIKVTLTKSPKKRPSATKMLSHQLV
row,SMILES,pIC50
1,CC(C)n1cnc2cc(-c3ccc4c(c3)N([C@H]3C[C@@H](N5CC6CCC(C6)C5)C3)C(=O)C43CCN(C(=O)C4CCO4)CC3)nc(Nc3ccncc3F)c21 (stereo partly drawn) [Example 125],10.40
2,Cc1cc(Nc2nc(-c3ccc4c(c3)N([C@H]3C[C@@H](N5CCCCC5)C3)C(=O)C43CCN(C(=O)C4(C)COC4)CC3)cc3ncn(C(C)C)c23)c(F)cn1 [Example 129],9.22
3,"CNC(=O)c1cc(Nc2nc(-c3ccc4c(c3)N([C@H]3C[C@@H](N5CCCCC5)C3)C(=O)C4(C)C)cc3ncn(C(C)C)c23)ncc1C [Example 194, 2-((6-(3,3-dimethyl-2-oxo-1-((1s,3s)-3-(piperidin-1-yl)cyclobutyl)indolin-6-yl)-3-isopropyl-3H-imidazo[4,5-c]pyridin-4-yl)amino)-N,5-dimethylisonicotinamide]",8.02
4,CC(=O)N1CCC2(CC1)C(=O)N([C@H]1C[C@@H](N3CCC(C)(C)C3)C1)c1cc(-c3cc4ncn(C(C)C)c4c(Nc4cc(C)ncc4F)n3)ccc12 [Example 173],9.40
5,CC[C@@H](O)C(=O)N1CCC2(CC1)C(=O)N([C@H]1C[C@@H](N3CCCCC3)C1)c1cc(-c3cc4ncn(C(C)C)c4c(Nc4ccncc4F)n3)ccc12 [Example 114],9.40
6,CC(C)n1cnc2cc(-c3ccc4c(c3)N([C@H]3C[C@@H](N5CCC(C)(C)C5)C3)C(=O)C43CCN(C(=O)C4(CO)CC4)CC3)nc(Nc3ccncc3F)c21 [Example 135],9.40
7,CC(C)n1cnc2cc(-c3ccc4c(c3)N([C@H]3C[C@@H](N5CCC(C)(C)C5)C3)C(=O)C43CCN(C(=O)c4cnnn4C)CC3)nc(Nc3ccncc3F)c21 [Example 161],9.40
8,CC(=O)N1CCC2(CC1)C(=O)N([C@H]1C[C@@H](N3CCC4(CC4)C3)C1)c1cc(-c3cc4ncn(C(C)C)c4c(Nc4ccncc4F)n3)ccc12 [Example 178],9.10
9,CC(C)n1cnc2cc(-c3ccc4c(c3)N([C@H]3C[C@@H](N5CCCCC5)C3)C(=O)C4(C)O)nc(Nc3ccnc(F)c3F)c21 (stereo partly drawn) [Example 101],9.52
10,CC[C@H](O)C(=O)N1CCC2(CC1)C(=O)N([C@H]1C[C@@H](N3CCC(C)(C)C3)C1)c1cc(-c3cc4ncn(C(C)C)c4c(Nc4ccncc4F)n3)ccc12 [Example 116],9.40
11,CC(C)n1cnc2cc(-c3ccc4c(c3)N([C@H]3C[C@@H](N5CC(C)(C)C5)C3)C(=O)C4(C)C)nc(Nc3cc(CO)ncc3F)c21 [Example 100],8.51
12,CC[C@H](O)C(=O)N1CCC2(CC1)C(=O)N([C@H]1C[C@@H](N3CCCCC3)C1)c1cc(-c3cc4ncn(C(C)C)c4c(Nc4ccncc4F)n3)ccc12 [Example 115],9.40
13,CC(C)n1cnc2cc(-c3ccc4c(c3)N([C@H]3C[C@@H](N5CCCCC5)C3)C(=O)C43CCN(C(=O)C4(C)COC4)CC3)nc(Nc3ccncc3F)c21 [Example 147],9.40
14,CC(C)n1cnc2cc(-c3ccc4c(c3)N([C@H]3C[C@@H](N5CCC(C)(C)C5)C3)C(=O)C43CCN(C(=O)c4ccon4)CC3)nc(Nc3ccncc3F)c21 [Example 155],9.52
15,"CCC(=O)N1CCC2(CC1)C(=O)N([C@H]1C[C@@H](N3CCCCC3)C1)c1cc(-c3cc4ncn(C(C)C)c4c(Nc4ccncc4F)n3)ccc12 [Example 167, 6-(4-((3-fluoropyridin-4-yl)amino)-3-isopropyl-3H-imidazo[4,5-c]pyridin-6-yl)-1-((1s,3s)-3-(piperidin-1-yl)cyclobutyl)-1′-propionylspiro[indoline-3,4′-piperidin]-2-one]",9.40
16,"CC(=O)N1CCC2(CC1)C(=O)N(C1CC(N3CCCC4(CC4)C3)C1)c1cc(-c3cc4ncn(C(C)C)c4c(Nc4ccncc4F)n3)ccc12 (stereo not drawn) [Example 177, 1-((1s,3s)-3-(5-azaspiro[2.5]octan-5-yl)cyclobutyl)-1′-acetyl-6-(4-((3-fluoropyridin-4-yl)amino)-3-isopropyl-3H-imidazo[4,5-c]pyridin-6-yl)spiro[indoline-3,4′-piperidin]-2-one]",9.52
17,CCC(=O)N1CCC2(CC1)C(=O)N([C@H]1C[C@@H](N3CCCCC3)C1)c1cc(-c3cc4ncn(CC)c4c(Nc4ccncc4F)n3)ccc12 [Example 168],8.59
18,CC(C)n1cnc2cc(-c3ccc4c(c3)N([C@H]3C[C@@H](N5CCCCC5)C3)C(=O)C43CCN(C(=O)C4(F)CCC4)CC3)nc(Nc3ccncc3F)c21 [Example 149],9.30
19,CC(=O)N1CCC2(CC1)C(=O)N([C@H]1C[C@@H](N3CC4CC4(C)C3)C1)c1cc(-c3cc4ncn(C(C)C)c4c(Nc4ccncc4F)n3)ccc12 (stereo partly drawn) [Example 187],9.70

# Same assay, conditions: recombinant human HPK1 kinase domain 0.15 nM, 10 μM ATP, 1 μM STK S1 peptide; geometric mean of multiple experiments
row,SMILES,pIC50
1,CC(C)n1cnc2cc(-c3ccc4c(c3)N([C@H]3C[C@@H](N5CCCCC5)C3)C(=O)C4(C)C)nc(Nc3c(F)cncc3F)c21 [Example 65],9.15
2,CC[C@H](C)n1cnc2cc(-c3ccc4c(c3)N([C@H]3C[C@@H](N5CCCCC5)C3)C(=O)C43CCN(C4COC4)CC3)nc(Nc3ccncc3F)c21 [Example 89],9.30
3,COc1cc(F)c(Nc2nc(-c3ccc4c(c3)N([C@H]3C[C@@H](N5CCCCC5)C3)C(=O)C43CCN(C(C)=O)CC3)cc3ncn(C(C)C)c23)cn1 [Example 97],9.70
4,CC(C)n1cnc2cc(-c3ccc4c(c3)N([C@H]3C[C@@H](N5CCC(C)(C)C5)C3)C(=O)C43CCN(C(=O)C4(C)CCO4)CC3)nc(Nc3ccncc3F)c21 (stereo partly drawn) [Example 12],10.00
5,CC(C)n1cnc2cc(-c3ccc4c(c3)N([C@H]3C[C@@H](N5CCC[C@@H](C)C5)C3)C(=O)C43CCN(C4COC4)CC3)nc(Nc3ccncc3F)c21 [Example 41],9.22
6,CC(C)n1cnc2cc(-c3ccc4c(c3)N([C@H]3C[C@@H](N5CCC(C)(C)C5)C3)C(=O)C43CCN(C(=O)C4(C)COC4)CC3)nc(Nc3ccncc3F)c21 [Example 77],9.40
7,CC(C)n1cnc2cc(-c3ccc4c(c3)N([C@H]3C[C@@H](N5CC6CCC5CC6)C3)C(=O)C4(C)C)nc(Nc3ccncc3F)c21 [Example 58],9.15
8,CC(C)n1cnc2cc(-c3ccc4c(c3)N([C@H]3C[C@@H](N5CC[C@](C)(F)C5)C3)C(=O)C43CCN(C4COC4)CC3)nc(Nc3ccncc3F)c21 [Example 86],9.22
9,CC(C)n1cnc2cc(-c3ccc4c(c3)N([C@H]3C[C@@H](N5C6CCC5COC6)C3)C(=O)C43CCN(C4COC4)CC3)nc(Nc3ccncc3F)c21 [Example 50],9.30
10,CC(C)n1cnc2cc(-c3ccc4c(c3)N([C@H]3C[C@@H](N5CCC(C)(C)C5)C3)C(=O)C43CCN(C(=O)[C@H]4CCCO4)CC3)nc(Nc3ccncc3F)c21 [Example 14],9.70
11,CC(C)n1cnc2cc(-c3ccc4c(c3)N([C@H]3C[C@@H](N5C[C@@H](C)[C@@H](C)C5)C3)C(=O)C43CCN(C(=O)[C@@H]4CCCO4)CC3)nc(Nc3ccncc3F)c21 [Example 9],9.70
12,CC(C)n1cnc2cc(-c3ccc4c(c3)N([C@H]3C[C@@H](N5CCC(C)(C)C5)C3)C(=O)C43CCN(C(=O)C(C)(C)O)CC3)nc(Nc3ccncc3F)c21 [Example 4],9.40
13,CC(C)n1cnc2cc(-c3ccc4c(c3)N([C@H]3C[C@@H](N5CCCCC5)C3)C(=O)C43CCN(C(=O)C(C)(C)O)CC3)nc(Nc3ccncc3F)c21 [Example 3],9.22
14,CC(C)n1cnc2cc(-c3ccc4c(c3)N([C@H]3C[C@@H](N5CCCCC5)C3)C(=O)C43CCN(C(=O)C4(C)CC4)CC3)nc(Nc3ccncc3F)c21 [Example 27],9.30
15,CC(C)n1cnc2cc(-c3ccc4c(c3)N([C@H]3C[C@@H](N5C[C@H]6CC[C@@H]5C6)C3)C(=O)C4(C)C)nc(Nc3ccncc3F)c21 [Example 66],9.15
16,CC(C)n1cnc2cc(-c3ccc4c(c3)N([C@H]3C[C@@H](N5CCC(C)(C)C5)C3)C(=O)C43CCN(C(=O)C4CCCCO4)CC3)nc(Nc3ccncc3F)c21 (stereo partly drawn) [Example 24],10.05
17,"CC(C)n1cnc2cc(-c3ccc4c(c3)N([C@H]3C[C@@H](N5CCCCC5)C3)C(=O)C4(C)O)nc(Nc3ccncc3F)c21 (stereo partly drawn) [Example 55, 6-(4-((3-fluoropyridin-4-yl)amino)-3-isopropyl-3H-imidazo[4,5-c]pyridin-6-yl)-3-hydroxy-3-methyl-1-((1s,3s)-3-(piperidin-1-yl)cyclobutyl)indolin-2-one]",9.05
18,CC(C)n1cnc2cc(-c3ccc4c(c3)N([C@H]3C[C@@H](N5CCC(C)(C)C5)C3)C(=O)C43CCN(C(=O)C4CCOCC4)CC3)nc(Nc3ccncc3F)c21 [Example 23],9.70
19,CC(C)n1cnc2cc(-c3cnc4c(c3)N([C@H]3C[C@@H](N5CCCCC5)C3)C(=O)C4(C)C)nc(Nc3ccnc(F)c3F)c21 [Example 95],8.60
20,"CC(C)n1cnc2cc(-c3ccc4c(c3)N([C@H]3C[C@@H](NCC(C)(C)O)C3)C(=O)C4(C)C)nc(Nc3ccncc3F)c21 [Example 52, 6-(4-((3-fluoropyridin-4-yl)amino)-3-isopropyl-3H-imidazo[4,5-c]pyridin-6-yl)-1-((1s,3s)-3-((2-hydroxy-2-methylpropyl)amino)cyclobutyl)-3,3-dimethylindolin-2-one]",8.80
21,CC(=O)N1CCC2(CC1)C(=O)N([C@H]1C[C@@H](N3CCC(C)(C)C3)C1)c1cc(-c3cc4ncn(C(C)C)c4c(Nc4ccncc4F)n3)ccc12 [Example 29],9.40
22,CC(C)n1cnc2cc(-c3ccc4c(c3)N([C@H]3C[C@@H](N5CC[C@@H](F)C5)C3)C(=O)C43CCN(C4COC4)CC3)nc(Nc3ccncc3F)c21 [Example 42],9.22
23,"CC(C)n1cnc2cc(-c3ccc4c(c3)N([C@H]3C[C@@H](N5CCC(C)(C)C5)C3)C(=O)C43CCN(C(=O)C4CCO4)CC3)nc(Nc3ccncc3F)c21 (single isomer, unassigned) [Example 78A, 1-((1s,3s)-3-(3,3-dimethylpyrrolidin-1-yl)cyclobutyl)-6-(4-((3-fluoropyridin-4-yl)amino)-3-isopropyl-3H-imidazo[4,5-c]pyridin-6-yl)-1′-(oxetane-2-carbonyl)spiro[indoline-3,4′-piperidin]-2-one]",9.52
